Read-outs that look alike come from different tables or passages of the source.
Legend:
[1] = tested on: Q30R in genotype 1a NS5A (1a Pi-Rluc replicon, Huh-7-derived cured-51 cells); assay: Replicon assay against resistance mutant 1a Q30R; assay type: cell-based, HCV; conditions: Hepatitis C virus
Procedure: Antiviral potency (EC50) was determined using a Renilla luciferase (RLuc)-based HCV replicon reporter assay. To perform the assay for genotype 1 and 2a JFH-1, stable HCV 1a RLuc replicon cells (harboring a dicistronic genotype 1a H77 replicon that encodes a RLuc reporter), stable HCV 1b RLuc replicon cells (harboring a dicistronic genotype 1b Con1 replicon that encodes a RLuc reporter), or stable HCV 2a JFH-1 Rluc replicon cells (harboring a dicistronic genotype 2a JFH-1 replicon that encodes a RLuc reporter; with L31 present in NS5A) were dispensed into 384-well plates for EC50 assays. To perform the assay for genotype 2a (with M31 present in NS5A) or 2b, NS5A chimeric genotype 2a JFH-1 replicons that encodes a RLuc-Neo reporter and either genotype 2a J6 strain NS5A gene or genotype 2b MD2b-1 strain NS5A gene (both with M31 present) respectively, were either transiently transfected (t) into Huh-Lunet cells or were established as stably replicating replicon cells (s) is provided. Either cells were dispensed into 384-well plates for EC50 assays. To perform the assay for genotype 3 and 4, NS5A chimeric genotype 1b Con1 replicons that encodes a Pi-RLuc reporter and either genotype 3a S52 strain NS5A gene or genotype 4a ED43 strain NS5A gene respectively, were transiently transfected (t) into Huh-Lunet cells, which were subsequently dispensed into 384-well plates. Compounds were dissolved in DMSO at a concentration of 10 mM and diluted in DMSO either manually or using an automated pipeting instrument. Serially 3-fold diluted compounds were either manually mixed with cell culture media and added to the seeded cells or directly added to the cells using an automated instrument. DMSO was used as a negative (solvent; no inhibition) control, and the protease inhibitor ITMN-191 was included at a concentration>100×EC50 as a positive control. 72 hours later, cells were lysed and Renilla luciferase activity quantified as recommended by the manufacturer (Promega-Madison, Wis.). Non-linear regression was performed to calculate EC50 values.
To determine the antiviral potency (EC50) against resistance mutants, resistance mutations, including M28T, Q30R, Q30H, Q30E, L31M, Y93C, Y93H, and Y93N in genotype 1a NS5A, Y93H and L31V/Y93H in genotype 1b NS5A, and Y93H for in genotype 3a NS5A, were introduced individually into either 1a Pi-Rluc or 1b Pi-Rluc replicons by site directed mutagenesis. Replicon RNA of each resistant mutant was transiently transfected into Huh-7-derived cured-51 cells and antiviral potency was determined on these transfected cells as described above.

[2] = tested on: stable HCV 1a RLuc replicon cells (dicistronic genotype 1a H77 replicon); assay: Renilla luciferase HCV replicon reporter assay, genotype 1a; assay type: cell-based; conditions: Hepatitis C virus, 72 h, stable 1a H77 RLuc replicon cells
Outline: (§1)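 First, 3-fold serial dilutions of compound went onto replicon cells, DMSO serving as no-inhibition control and ITMN-191 at >100×EC50 as positive control. Next came 72 h incubation, lysis and Renilla luciferase measurement. Finally, EC50 was calculated by non-linear regression; replicons covered genotypes 1a H77, 1b Con1, 2a JFH-1 (L31) and J6-NS5A chimera (M31).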

[3] = tested on: stable HCV 1b RLuc replicon cells (dicistronic genotype 1b Con1 replicon); assay: Renilla luciferase HCV replicon reporter assay, genotype 1b; assay type: cell-based; conditions: Hepatitis C virus, 72 h, stable 1b Con1 RLuc replicon cells, 72 hours; read-out: 1b
Outline: as §1

[4] = tested on: stable HCV 2a JFH-1 Rluc replicon cells (L31 present in NS5A); assay: Renilla luciferase HCV replicon reporter assay, genotype 2a JFH-1; assay type: cell-based; conditions: Hepatitis C virus
Outline: as §1

[5] = tested on: NS5A chimeric genotype 2a JFH-1 replicon with genotype 2b MD2b-1 strain NS5A gene (M31 present); assay: Replicon assay, genotype 2b NS5A chimera; assay type: cell-based, HCV; conditions: Hepatitis C virus
Outline: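 EC50 was fitted by non-linear regression to Renilla luciferase signal after 72 h of exposure to 3-fold serially diluted compound (10 mM DMSO stocks). Controls were DMSO (none) and ITMN-191 above 100×EC50 (full). Chimeric 2a replicons were used either stable or transiently transfected into Huh-Lunet cells.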

[6] = tested on: NS5A chimeric genotype 1b Con1 replicon with genotype 3a S52 strain NS5A gene; assay: Replicon assay, genotype 3a NS5A chimera; assay type: cell-based, HCV; conditions: Hepatitis C virus
[7] = tested on: NS5A chimeric genotype 1b Con1 replicon with genotype 4a ED43 strain NS5A gene; assay: Replicon assay, genotype 4a NS5A chimera; assay type: cell-based, HCV; conditions: Hepatitis C virus
[8] = tested on: NS5A chimeric genotype 2a JFH-1 replicon with genotype 2a J6 strain NS5A gene (M31 present); assay: Replicon assay, genotype 2a J6 NS5A chimera; assay type: cell-based, HCV; conditions: Hepatitis C virus
Outline: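 72 h compound exposure (3-fold dilutions from 10 mM DMSO stocks) of replicon cells: stable dicistronic RLuc 1a H77, 1b Con1, 2a JFH-1 (NS5A L31); J6-NS5A chimera in JFH-1 (M31), transient in Huh-Lunet or stable. Renilla luciferase read-out, non-linear regression → EC50. DMSO negative control.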

[9] = read-out: 2a JFH (nM), genotype 2a JFH-1 replicon (L31 in NS5A), stable cells
[10] = read-out: 2a JFH, stable 2a JFH-1 Rluc replicon cells, L31 in NS5A, activity range
[11] = 2BS, read-out: 2b (s), stably replicating replicon cells (s), activity range
[12] = read-out: 2b (s) (nM), genotype 2b MD2b-1 NS5A chimeric replicon (M31), stably replicating replicon cells (s)
[13] = read-out: 2b (t) (nM), genotype 2b MD2b-1 NS5A chimeric replicon (M31), transiently transfected (t)
[14] = read-out: 2b (t), transiently transfected (t) into Huh-Lunet cells, activity range
[15] = read-out: 3a (s) (nM), genotype 3a NS5A chimeric replicon, stable replicon cells (s)
[16] = read-out: 3a (s), (s), activity range
[17] = read-out: 4a (s) (nM), genotype 4a NS5A chimeric replicon, stable replicon cells (s)
[18] = read-out: 4a (s), (s), activity range
[19] = read-out: 2a J6 (t) (nM), genotype 2a J6 NS5A chimeric replicon (M31), transiently transfected (t) into Huh-Lunet cells
[20] = read-out: 2a J6 (t), transiently transfected (t) into Huh-Lunet cells, activity range

| Structure (SMILES) | EC50 ([1]; read-out: 1a Q30R) | EC50 ([1]; read-out: 1a Q30R (nM)) | EC50 [2] | EC50 ([2]; activity range) | EC50 [3] | EC50 [4, 9] | EC50 [4, 10] | EC50 [5, 11] | EC50 [5, 12] | EC50 [5, 13] | EC50 [5, 14] | EC50 [6, 15] | EC50 [6, 16] | EC50 [7, 17] | EC50 [7, 18] | EC50 [8, 19] | EC50 [8, 20] | EC50 ([6]; read-out: 3a (t) (nM), genotype 3a NS5A chimeric replicon, transiently transfected (t)) | EC50 ([6]; read-out: 3a (t), transiently transfected (t) into Huh-Lunet cells, activity range) |
| --- | --- | --- | --- | --- | --- | --- | --- | --- | --- | --- | --- | --- | --- | --- | --- | --- | --- | --- | --- |
| CC[C@H]1CC[C@@H](c2nc3ccc4cc5c(cc4c3[nH]2)OCc2cc(-c3cnc([C@@H]4CC[C@H](C)N4C(=O)[C@@H](NC(=O)OC)C(C)C)[nH]3)ccc2-5)N1C(=O)[C@@H](NC(=O)OC)C1CCOCC1 [EO, methyl[(1 S)-2-[(2S,5S)-2-ethyl-5-(9-{2-[(2S,5S)-1-{(2S)-2 [(methoxycarbonyl)amino]-3-methylbutanoyl}-5-methylpyrrolidin-2-yl]-1H-imidazol-5-yl}-1,11-dihydroisochromeno[4′,3′:6,7]naphtho[1,2-d]imidazol-2-yl)pyrrolidin-1-yl]-2-oxo-1-(tetrahydro-2H-pyran-4-yl)ethyl]carbamate] | < 0.1 nM | 0.052 nM | 0.024 nM | < 0.1 nM | 0.04 nM | 0.017 nM | < 0.1 nM | < 0.1 nM | 0.091 nM | 0.038 nM | < 0.1 nM | 0.054 nM | < 0.1 nM |  |  |  |  |  |  |
| COC[C@H]1C[C@@H](c2ncc(-c3ccc4c(c3)COc3cc5c(ccc6nc([C@@H]7C[C@H](COC)CN7C(=O)[C@H](NC(=O)OC)c7ccccc7)[nH]c65)cc3-4)[nH]2)N(C(=O)[C@H](NC(=O)OC)c2ccccc2)C1 [EY, Methyl {(1R)-2-[(2S,4S)-2-(5-{2-[(2S,4S)-1-{(2R)-2-[(methoxycarbonyl)amino]-2-phenylacetyl}-4-(methoxymethyl)pyrrolidin-2-yl]-1,11-dihydroisochromeno[4′,3′:6,7]naphtho[1,2-d]imidazol-9-yl}-1H-imidazol-2-yl)-4-(methoxymethyl)pyrrolidin-1-yl]-2-oxo-1-phenylethyl}carbamate] | < 0.1 nM | 0.057 nM | 0.029 nM | < 0.1 nM | 0.049 nM | 0.029 nM | < 0.1 nM | < 0.1 nM | 0.035 nM |  |  | 0.087 nM | < 0.1 nM | 0.025 nM | < 0.1 nM | 0.008 nM | < 0.1 nM | 0.118 nM | 0.1 to 0.999 nM |
| COC(=O)N[C@H](C(=O)N1[C@@H](C)CC[C@H]1c1ncc(-c2ccc3c(c2)COc2cc4c(ccc5nc([C@@H]6CC[C@H](C)N6C(=O)[C@@H](NC(=O)OC)[C@@H](C)O)[nH]c54)cc2-3)[nH]1)C(C)C [FI, Methyl {(2S,3R)-3-hydroxy-1-[(2S,5S)-2-(9-{2-[(2S,5S)-1-{(2S)-2-[(methoxycarbonyl)amino]-3-methylbutanoyl}-5-methylpyrrolidin-2-yl]-1H-imidazol-5-yl}-1,11-dihydroisochromeno[4′,3′:6,7]naphtho[1,2-d]imidazol-2-yl)-5-methylpyrrolidin-1-yl]-1-oxobutan-2-yl}carbamate] | 0.1 to 0.999 nM | 0.115 nM | 0.01 nM | < 0.1 nM | 0.022 nM | 0.015 nM | < 0.1 nM | 0.1 to 0.999 nM | 0.152 nM |  |  | 0.04 nM | < 0.1 nM | 0.012 nM | < 0.1 nM |  |  |  |  |
| COC(=O)N[C@H](C(=O)N1[C@@H](C)CC[C@H]1c1ncc(-c2ccc3c(c2)COc2cc4c(ccc5nc([C@@H]6CC[C@H](C)N6C(=O)[C@@H](NC(=O)OC)[C@@H](C)OC)[nH]c54)cc2-3)[nH]1)C1CCOCC1 [FR, Methyl [(1 S)-2-[(2S,5S)-2-(5-{2-[(2S,5S)-1-{(2S,3R)-3-methoxy-2-[(methoxycarbonyl)amino]butanoyl}-5-methylpyrrolidin-2-yl]-1,11-dihydroisochromeno[4′,3′:6,7]naphtho[1,2-d]imidazol-9-yl}-1H-imidazol-2-yl)-5-methylpyrrolidin-1-yl]-2-oxo-1-(tetrahydro-2H-pyran-4-yl)ethyl]carbamate] | < 0.1 nM | 0.071 nM | 0.026 nM | < 0.1 nM | 0.05 nM | 0.015 nM | < 0.1 nM | < 0.1 nM | 0.054 nM |  |  | 0.031 nM | < 0.1 nM |  |  |  |  |  |  |
| CC[C@H](C)[C@H](NC(=O)OC)C(=O)N1[C@@H](C)CC[C@H]1c1ncc(-c2ccc3c(c2)COc2cc4c(ccc5nc([C@@H]6CC[C@H](C)N6C(=O)[C@@H](NC(=O)OC)C6CCOCC6)[nH]c54)cc2-3)[nH]1 [GG, Methyl [(2S,3S)-1-{(2S,5S)-2-[5-(2-{(2S,5S)-1-[(2S)-2-[(methoxycarbonyl)amino]-2-(tetrahydro-2H-pyran-4-yl)acetyl]-5-methylpyrrolidin-2-yl}-1,11-dihydroisochromeno[4′,3′:6,7]naphtho[1,2-d]imidazol-9-yl)-1H-imidazol-2-yl]-5-methylpyrrolidin-1-yl}-3-methyl-1-oxopentan-2-yl]carbamate] | < 0.1 nM | 0.032 nM | 0.015 nM | < 0.1 nM | 0.022 nM | 0.02 nM | < 0.1 nM | < 0.1 nM | 0.083 nM | 0.044 nM | < 0.1 nM | 0.038 nM | < 0.1 nM | 0.013 nM | < 0.1 nM |  |  |  |  |
| COC(=O)N[C@H](C(=O)N1[C@H](c2ncc(-c3ccc4c(c3)COc3cc5c(ccc6nc([C@@H]7CC[C@H](C)N7C(=O)[C@@H](NC(=O)OC)C7CCOCC7)[nH]c65)cc3-4)[nH]2)C[C@@H]2CCC[C@@H]21)C(C)C [IY] |  |  | 0.023 nM | < 0.1 nM | 0.03 nM | 0.012 nM | < 0.1 nM | < 0.1 nM | 0.069 nM |  |  | 0.045 nM | < 0.1 nM | 0.019 nM | < 0.1 nM | 0.047 nM | < 0.1 nM |  |  |

Source: patent US10800789B2, “Antiviral compounds” (Gilead Pharmasset LLC, priority 2012, dated 2020)
